Laboratory results as given in publication PMC10796436, “Peptidyl nitroalkene inhibitors of main protease rationalized by computational and crystallographic investigations as antivirals against SARS-CoV-2” (Communications Chemistry, 2024).
“And” between values parts separate entries of the source, which are not always exact repeats. Equal entries are not always repeated.

How the values were obtained:
SARS-CoV-2 M^pro [1] = molecular target: T1, SARS-CoV-2 M^pro (Severe acute respiratory syndrome coronavirus 2, UniProt P0DTD1); experiment: biochemical; conditions: M^pro from pMal-M^pro vector
SARS-CoV-2 M^pro [2] = molecular target: T1, SARS-CoV-2 M^pro; experiment: Mpro FRET inhibition, continuous fluorometric assay (Fluorolog-3), enzyme from pET21-M^pro vector; assay type: biochemical; conditions: read-out: Ki (μM)^b
SARS-CoV-2 = experiment: microbe, parasite or virus in culture; assay type: cell-based; conditions: for virus titer Mean (%): mean of Exp.1-3; for virus titer (%) of conc 0 / virus titer (pfu/ml): single experiments
[3] = molecular target: human matriptase (MT-SP1) (Homo sapiens, UniProt Q9Y5Y6); experiment: Matriptase inhibition, fluorometric assay; assay type: biochemical; conditions: 20 μM
Chain of human matriptase (MT-SP1) (Q9Y5Y6 615-855 limits assumed, other chains not shown): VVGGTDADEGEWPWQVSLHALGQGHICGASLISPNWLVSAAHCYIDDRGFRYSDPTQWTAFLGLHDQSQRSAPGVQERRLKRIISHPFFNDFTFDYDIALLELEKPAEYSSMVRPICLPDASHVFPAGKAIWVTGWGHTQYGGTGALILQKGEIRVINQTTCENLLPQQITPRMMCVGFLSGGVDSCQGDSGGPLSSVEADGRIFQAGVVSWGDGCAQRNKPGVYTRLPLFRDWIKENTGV

[4] = molecular target: Zika Virus NS2B/NS3 (bZiPro) (Zika virus, UniProt A0A024B7W1); experiment: Zika virus protease inhibition, fluorometric assay; assay type: biochemical; conditions: 20 μM
Chain of Zika Virus NS2B/NS3 (bZiPro) (A0A024B7W1 1425-1464): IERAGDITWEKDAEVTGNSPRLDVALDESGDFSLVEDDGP
Chain of Zika Virus NS2B/NS3 (bZiPro) (A0A024B7W1 1503-1680): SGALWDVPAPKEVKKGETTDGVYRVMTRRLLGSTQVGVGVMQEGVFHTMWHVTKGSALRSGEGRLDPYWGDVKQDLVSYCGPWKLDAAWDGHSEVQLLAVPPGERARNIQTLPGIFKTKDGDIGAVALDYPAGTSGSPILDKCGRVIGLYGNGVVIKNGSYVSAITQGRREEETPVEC

cathepsin L (CatL) = molecular target: T2, cathepsin L (CatL) (Homo sapiens, UniProt P07711); experiment: Cathepsin L inhibition, fluorometric assay; assay type: biochemical
T2 construct: purchased Calbiochem (Merck Millipore)
T2 sequence (P07711 114-288 limits assumed): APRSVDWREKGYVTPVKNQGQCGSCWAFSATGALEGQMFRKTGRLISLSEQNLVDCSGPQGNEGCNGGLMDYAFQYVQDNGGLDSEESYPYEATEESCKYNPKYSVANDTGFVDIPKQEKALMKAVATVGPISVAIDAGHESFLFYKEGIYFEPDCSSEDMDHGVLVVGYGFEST
T2 sequence (P07711 292-333 limits assumed): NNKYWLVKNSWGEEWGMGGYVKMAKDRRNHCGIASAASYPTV

M^pro = M^pro (Severe acute respiratory syndrome coronavirus 2, UniProt P0DTD1); experiment: biochemical; assay type: binding

CC(C)C[C@H](NC(=O)OCc1ccccc1)C(=O)N[C@H](/C=C/[N+](=O)[O-])C[C@@H]1CCNC1=O [FGA147]
Ki (SARS-CoV-2 M^pro [1]): 2.18 ± 0.19 µM
Ki (SARS-CoV-2 M^pro [2]): 1.33 ± 0.05 µM
EC50 (SARS-CoV-2; Severe acute respiratory syndrome coronavirus 2, 24 h, Huh-7-ACE2, 24h p.t., MOI=0.1): 1.9 µM
virus titer Mean (%) (SARS-CoV-2; conc 0.1): 153.333%
virus titer (%) of conc 0 (SARS-CoV-2; conc 0.1): 160% and 180% and 120%
virus titer (pfu/ml) (SARS-CoV-2; conc 0.1): 1600000 pfu/ml and 1800000 pfu/ml and 2400000 pfu/ml
virus titer Mean (%) (SARS-CoV-2; conc 0.5): 83.3333%
virus titer (pfu/ml) (SARS-CoV-2; conc 0.5): 1000000 pfu/ml and 1200000 pfu/ml and 600000 pfu/ml
virus titer Mean (%) (SARS-CoV-2; conc 1): 85%
virus titer Mean (%) (SARS-CoV-2; conc 5): 0.5017%
virus titer (%) of conc 0 (SARS-CoV-2; conc 5): 1% and 0.365% and 0.14%
virus titer Mean (%) (SARS-CoV-2; conc 10): 0.08%
virus titer (%) of conc 0 (SARS-CoV-2; conc 10): 0.04% and 0.15% and 0.05%
virus titer Mean (%) (SARS-CoV-2; conc 50): 0.025%
virus titer (%) of conc 0 (SARS-CoV-2; conc 50): 0.06% and 0.012% and 0.003%
virus titer Mean (%) (SARS-CoV-2; conc 100): 0.01767%
virus titer (%) of conc 0 (SARS-CoV-2; conc 100): 0.02% and 0.026% and 0.007%
virus titer (pfu/ml) (SARS-CoV-2; conc 100): 200 pfu/ml and 260 pfu/ml and 140 pfu/ml
MT-SP1 [3]: n.i. (no inhibition (<10%) was observed at a concentration of 20 μM)
bZiPro [4]: n.i. (no inhibition (<10%) was observed at a concentration of 20 μM)
Ki (cathepsin L (CatL)): 1.99 ± 0.107 µM
Tm of M^pro (M^pro; 25 µM): 46.2 ± 0.1 °C
change of Tm of M^pro (M^pro; 25 µM): −3.0 ± 0.1 °C
ΔTm at 25 µM (M^pro; 25 µM, read-out: DTm (°C)): -3 °C
Tm of M^pro (M^pro; 100 μM): 45.0 ± 0.2 °C
change of Tm of M^pro (M^pro; 100 μM): −4.2 ± 0.2 °C
Fraction unfolded (M^pro; 25 mM, 21.5 °C): 0.04278
Fraction unfolded (M^pro; 25 mM, 22 °C): 0.07148
Fraction unfolded (M^pro; 25 mM, 22.5 °C): 0.01751
Fraction unfolded (M^pro; 25 mM, 23 °C): -0.05389
Fraction unfolded (M^pro; 25 mM, 23.5 °C): -0.01968
Fraction unfolded (M^pro; 25 mM, 24 °C): 0.09885
Fraction unfolded (M^pro; 25 mM, 24.5 °C): 0.01751
Fraction unfolded (M^pro; 25 mM, 25 °C): 0.01414
Fraction unfolded (M^pro; 25 mM, 25.5 °C): -0.01034
Fraction unfolded (M^pro; 25 mM, 26 °C): 0.01683
Fraction unfolded (M^pro; 25 mM, 26.5 °C): 0.04278
Fraction unfolded (M^pro; 25 mM, 27 °C): 0.07148
Fraction unfolded (M^pro; 25 mM, 27.5 °C): -0.01421
Fraction unfolded (M^pro; 25 mM, 28 °C): -0.05389
Fraction unfolded (M^pro; 25 mM, 28.5 °C): -0.01968
Fraction unfolded (M^pro; 25 mM, 29 °C): 0.09885
Fraction unfolded (M^pro; 25 mM, 29.5 °C): 0.01751
Fraction unfolded (M^pro; 25 mM, 30 °C): -0.01678
Fraction unfolded (M^pro; 25 mM, 30.5 °C): 0.01948
Fraction unfolded (M^pro; 25 mM, 31 °C): 0.07312
Fraction unfolded (M^pro; 25 mM, 31.5 °C): 0.01304
Fraction unfolded (M^pro; 25 mM, 32 °C): 0.01813
Fraction unfolded (M^pro; 25 mM, 66.5 °C): 1.064
Fraction unfolded (M^pro; 25 mM, 67 °C): 1.093
Fraction unfolded (M^pro; 25 mM, 67.5 °C): 1.004
Fraction unfolded (M^pro; 25 mM, 68 °C): 1.064
Fraction unfolded (M^pro; 25 mM, 68.5 °C): 0.9281
Fraction unfolded (M^pro; 25 mM, 69 °C): 1.033
Fraction unfolded (M^pro; 25 mM, 69.5 °C): 0.9909
Fraction unfolded (M^pro; 25 mM, 70 °C): 0.9575
Fraction unfolded (M^pro; 25 mM, 70.5 °C): 1.011
Fraction unfolded (M^pro; 25 mM, 71 °C): 1.05
Fraction unfolded (M^pro; 25 mM, 71.5 °C): 1.061
Fraction unfolded (M^pro; 25 mM, 72 °C): 0.9314
Fraction unfolded (M^pro; 25 mM, 72.5 °C): 1.024
Fraction unfolded (M^pro; 25 mM, 73 °C): 1.027
Fraction unfolded (M^pro; 25 mM, 73.5 °C): 1.08
Fraction unfolded (M^pro; 25 mM, 74 °C): 1
Fraction unfolded (M^pro; 25 mM, 74.5 °C): 0.9793
Fraction unfolded (M^pro; 25 mM, 75 °C): 0.8934
Fraction unfolded (M^pro; 25 mM, 75.5 °C): 0.9799
Fraction unfolded (M^pro; 25 mM, 76 °C): 1.027
Fraction unfolded (M^pro; 25 mM, 76.5 °C): 0.9678
Fraction unfolded (M^pro; 25 mM, 77 °C): 0.9735
Fraction unfolded (M^pro; 25 mM, 77.5 °C): 0.9321
Fraction unfolded (M^pro; 25 mM, 78 °C): 1.0047
Fraction unfolded (M^pro; 25 mM, 78.5 °C): 1.022
Fraction unfolded (M^pro; 25 mM, 79 °C): 0.9456
Fraction unfolded (M^pro; 25 mM, 79.5 °C): 1.012
Fraction unfolded (M^pro; 25 mM, 80 °C): 0.9456
Fraction unfolded (M^pro; 100 mM, 21.5 °C): -0.02084
Fraction unfolded (M^pro; 100 mM, 22 °C): -0.00506
Fraction unfolded (M^pro; 100 mM, 22.5 °C): 0.01094
Fraction unfolded (M^pro; 100 mM, 23 °C): 0.02167
Fraction unfolded (M^pro; 100 mM, 23.5 °C): -0.03337
Fraction unfolded (M^pro; 100 mM, 24 °C): -0.04925
Fraction unfolded (M^pro; 100 mM, 24.5 °C): -0.01302
Fraction unfolded (M^pro; 100 mM, 25 °C): 0.0174
Fraction unfolded (M^pro; 100 mM, 25.5 °C): 0.07455
Fraction unfolded (M^pro; 100 mM, 26 °C): -0.07318
Fraction unfolded (M^pro; 100 mM, 26.5 °C): 0.02179
Fraction unfolded (M^pro; 100 mM, 27 °C): -0.00134
Fraction unfolded (M^pro; 100 mM, 27.5 °C): 0.02966
Fraction unfolded (M^pro; 100 mM, 28 °C): -0.07997
Fraction unfolded (M^pro; 100 mM, 28.5 °C): -0.01931
Fraction unfolded (M^pro; 100 mM, 29 °C): 0.05111
Fraction unfolded (M^pro; 100 mM, 29.5 °C): 0.02685
Fraction unfolded (M^pro; 100 mM, 30 °C): 0.06732
Fraction unfolded (M^pro; 100 mM, 30.5 °C): -0.02735
Fraction unfolded (M^pro; 100 mM, 31 °C): 0.01656
Fraction unfolded (M^pro; 100 mM, 31.5 °C): -0.02084
Fraction unfolded (M^pro; 100 mM, 32 °C): -0.00506
Fraction unfolded (M^pro; 100 mM, 66.5 °C): 1.07
Fraction unfolded (M^pro; 100 mM, 67 °C): 1.013
Fraction unfolded (M^pro; 100 mM, 67.5 °C): 0.9992
Fraction unfolded (M^pro; 100 mM, 68 °C): 1.02
Fraction unfolded (M^pro; 100 mM, 68.5 °C): 1.071
Fraction unfolded (M^pro; 100 mM, 69 °C): 0.9861
Fraction unfolded (M^pro; 100 mM, 69.5 °C): 1.008
Fraction unfolded (M^pro; 100 mM, 70 °C): 1.064
Fraction unfolded (M^pro; 100 mM, 70.5 °C): 0.8899
Fraction unfolded (M^pro; 100 mM, 71 °C): 1.057
Fraction unfolded (M^pro; 100 mM, 71.5 °C): 1.048
Fraction unfolded (M^pro; 100 mM, 72 °C): 1.1085
Fraction unfolded (M^pro; 100 mM, 72.5 °C): 1.099
Fraction unfolded (M^pro; 100 mM, 73 °C): 0.9672
Fraction unfolded (M^pro; 100 mM, 73.5 °C): 1.047
Fraction unfolded (M^pro; 100 mM, 74 °C): 0.9312
Fraction unfolded (M^pro; 100 mM, 74.5 °C): 1.062
Fraction unfolded (M^pro; 100 mM, 75 °C): 1.063
Fraction unfolded (M^pro; 100 mM, 75.5 °C): 1.018
Fraction unfolded (M^pro; 100 mM, 76 °C): 0.9202
Fraction unfolded (M^pro; 100 mM, 76.5 °C): 1.013
Fraction unfolded (M^pro; 100 mM, 77 °C): 0.9957
Fraction unfolded (M^pro; 100 mM, 77.5 °C): 1.0714
Fraction unfolded (M^pro; 100 mM, 78 °C): 0.8845
Fraction unfolded (M^pro; 100 mM, 78.5 °C): 0.9237
Fraction unfolded (M^pro; 100 mM, 79 °C): 1.0367
Fraction unfolded (M^pro; 100 mM, 79.5 °C): 0.9498
Fraction unfolded (M^pro; 100 mM, 80 °C): 0.9799
